Test results published in patent EP4257135A1, “BENZIMIDAZOLE DERIVATIVES FOR PULMONARY ARTERIAL HYPERTENSION” (Justus-Liebig-Universität Gießen, priority 2022, dated 2023).

System: MCT-PAH
Assay: Monocrotaline-induced PAH rat model, right heart catheterisation and histology
Assay type: in vivo, Ratten
Details: MCT-PAH rats, three times weekly for two weeks, intratracheal nebulisation 275 nmol/kg
Description: Um das therapeutische Potenzial der EP300/CREBBP-Hemmung in vivo weiter zu erforschen, haben die Erfinder Versuchstiere in drei verschiedenen Nagetiermodellen mit etablierter PAH mit der Substanz SGC-CBP30 behandelt, wobei SGC-CBP30 durch intra-tracheale Vernebelung über zwei Wochen lang dreimal wöchentlich verabreicht wurde. Es wurden folgende drei verschiedenen Nagetiermodelle für eine PAH (FHR-PAH, MCT-PAH und SuHx-PAH) getestet: • Fawn-hooded hypertensive Ratten (FHR): Das ist ein genetischer Rattenstamm, bei dem PAH im Alter spontan auftritt und der ähnliche PAH-Anomalien aufweist, wie sie bei IPAH bei Menschen nach 40 Wochen auftreten. • Durch Monocrotalin (MCT) induziertes PAH-Rattenmodell. • Ein SUGEN5416/chronische Hypoxie (SuHx)-Rattenmodell für PAH, bei dem die Ratten eine einmalige Injektion von SUGEN5416 erhielten und anschließend einer chronischen Hypoxie (10% O2) ausgesetzt wurden (SuHx-PAH).
Für die MCT-PAH wurden männlichen und weiblichen SD-Ratten (Sprague-Dawley-Ratten) subkutan 60 mg/kg MCT (Sigma, Katalog: C2401) injiziert, um PAH zu induzieren. Bei der SuHx-PAH erhielten SD-Ratten eine einmalige subkutane Injektion von SUGEN5416 (20 mg/kg) und wurden drei Wochen lang einer normobaren Hypoxie ausgesetzt, bevor sie für zwei Wochen an die Raumluft zurückkehrten. Zwei Wochen nach der MCT-Injektion bzw. drei Wochen nach der SUGEN5416-Injektion (sobald PAH festgestellt wurde) wurden die Ratten nach dem Zufallsprinzip in vier Gruppen eingeteilt und erhielten zwei Wochen lang dreimal wöchentlich entweder Vehikel (Verabreichung von 1 % Methylcellulose in destilliertem Wasser oder intratracheale Vernebelung von 4 % DMSO in PBS als Negativkontrolle), SGC-CBP30 (Verabreichung von 10 mg/kg in 1 % Methylcellulose + destilliertem Wasser) oder SGC-CBP30 (intratracheale Vernebelung von 275 nmol/kg in 4 % DMSO + PBS). Einjährige männliche und weibliche FHR-Ratten mit etablierter PAH wurden in dieselben vier Gruppen wie beim MCT-Modell eingeteilt und den selben Behandlungsmethoden unterzogen. Für die Vernebelung wurden die Ratten mit 3%igem Isofluran betäubt. Ein 16-Gauge-Katheter wurde in die Luftröhre eingeführt. Ein Vernebler (Aerogen) wurde an den Katheter angeschlossen, und für jede Behandlung wurde ein Volumen von 50 µl SGC-CBP30 oder dessen Vehikel (als Negativkontrolle) verabreicht. Nach zweiwöchiger Behandlung wurde eine Rechtsherzkatheteruntersuchung bei geschlossenem Thorax durchgeführt, um folgende hämodynamischen Daten zu erfassen: Systolischer Rechtsventrikulärer Druck (RVSP), mittlerer PA-Druck (mPAP), Herzzeitvolumen (CO) und Schlagvolumen (SV). Der Gesamtwiderstand der Lunge (TPR) wurde durch Division von mPAP durch CO ermittelt. Nach der hämodynamischen Messung wurden den Ratten Gewebeproben entnommen. Die Experimente wurden gemäß den Richtlinien des Canadian Council on Animal Care durchgeführt. Alle Protokolle wurden von der institutionellen Ethikkommission für Tiere (Tierschutzausschuss der Universität Laval) geprüft und genehmigt (Protokollnummer 2019-018-2). Alle Experimente folgten den Richtlinien für die präklinische Forschung bei PAH.
Der schwarze Balken zeigt 50 µm an. Die Daten sind als Mittelwert ± SD angegeben und die statistische Analyse wurde mit einem ungepaarten Student's t-Test durchgeführt. FHR, MCT und SU5416/chronische Hypoxie-Ratten: *P<0,05, **P<0,01 und ***P<0,001 gegenüber den mit Vehikel behandelten Gruppen. MCT-Rattenmodell: §P<0,05, §§P<0,01 und §§§P<0,001 gegenüber der unbehandelten Kontrollgruppe. • A: Schematische Darstellung des Versuchsaufbaus für die Behandlung von Fawn-hooded hypertensive Ratten (FHR) mit dem EP300/CREBBP-Inhibitor SGC-CBP30, der selektiv auf die Acetyltransferase EP300/CREBBP wirkt. […]

## COc1ccc(CCc2nc3cc(-c4c(C)noc4C)ccc3n2C[C@H](C)N2CCOCC2)cc1Cl [SGC-CBP30, 2-[2-(3-Chloro-4-methoxyphenyl)ethyl]-5-(3,5-dimethyl-1,2-oxazol-4-yl)-1-[(S)-2-(morpholin-4-yl)propyl]-1H-benzimidazole]
Start two weeks after MCT
  RVSP: signifikanten Senkung
  mPAP: signifikanten Senkung
  CO: verbesserten sich nach der Behandlung mit der Substanz SGC-CBP30 bei FHR-PAH und MCT-PAH signifikant
  SV: verbesserten sich nach der Behandlung mit der Substanz SGC-CBP30 bei FHR-PAH und MCT-PAH signifikant
  mediale Wanddicke der distalen PAs: signifikant verringert
mPAP divided by CO
  TPR: signifikanten Senkung
